Experimental data reported in the NIST ThermoML archive (doi:10.1016/j.fluid.2018.11.010).

Assay: wn = mass fraction of the nth substance listed
Settings: 298.15 K, Wilhelmy plate method

With CC(=O)[O-].CCCCCCn1cc[n+](C)c1 [3-hexyl-1-methylimidazolium acetate] + O the surface tension liquid-gas (w1 = 7e-05) was 66.55 mN/m, the surface tension liquid-gas (w1 = 0.00069) was 60.77 mN/m and the surface tension liquid-gas (w1 = 0.01013) was 51.97 mN/m. For the same compound, the surface tension liquid-gas (w1 = 0.3005) was 41 mN/m and the surface tension liquid-gas (w1 = 1) was 36 mN/m.
